Reference: patent US20260315437A1, “COMBINATION OF NAB-SIROLIMUS AND AN ESTROGEN SUPPRESOR FOR USE IN THE TREATMENT OF HORMONE-DEPENDENT CANCERS” (AADI Bioscience, Inc., priority 2023, published 2026)

Experiments:
HSA = conditions: cited from earlier work
ABCB1/ABCG2 = conditions: cited from earlier work
[1] = in vivo; cited from earlier work
p4EBP1 = experiment: Western blot analysis of p4EBP1 in MCF7 cells; assay type: cell-based; conditions: single agent, FIG. 3
Protocol: (§1) A series of single-agent treatments of fulvestrant or nab-sirolimus and combination treatments of both fulvestrant and nab-sirolimus were separately applied to aliquots of hormone receptor positive breast cancer cell lines (either MCF7 or MDA-MB-361). The series including varying concentration of nab-sirolimus (20 nM or 80 nM) and fulvestrant (0.98 nM to 1000 nM). Following the application of the individual treatments, the cell aliquots were incubated for 5 days. Subsequently, the antiproliferative and cytotoxic effects of single agent and combination treatments were assessed using an automated trypan blue exclusion assay.
Western blot analysis was performed to assess p4EBP1 in MCF7 cells. […] Thus, addition of nab-sirolimus to endocrine-based therapies, such as fulvestrant, may overcome mechanisms of resistance.

pAKT = experiment: Western blot analysis of pAKT in MCF7 cells; assay type: cell-based; conditions: fulvestrant combined with nab-sirolimus, FIG. 3, effect on nab-sirolimus-induced increase
Protocol: as §1
Western blot analysis was performed to assess pAKT in MCF7 cells. […] Thus, addition of fulvestrant, to mTOR targeting agents, such as nab-sirolimus may overcome mechanisms of resistance.

CYP3A4 = conditions: role: substrate; cited from earlier work
human plasma proteins = conditions: cited from earlier work
mTORC1 at Ser2448 = conditions: cited from earlier work

SMILES: CC(C)c1cccc(C(C)C)c1O [propofol]
- binding to HSA (HSA): shown to bind HSA

SMILES: COc1ccc(COc2cc3oc(=O)c4cc(C(C)O)ccc4c3cc2OC)cc1 (stereo not drawn) [Palomid 529]
- affinity for ABCB1/ABCG2 (ABCB1/ABCG2): lacks affinity for ABCB1/ABCG2
- brain penetration [1]: good brain penetration

SMILES: C[C@]12CC[C@@H]3c4ccc(O)cc4C[C@@H](CCCCCCCCC[S+]([O-])CCCC(F)(F)C(F)(F)F)[C@H]3[C@@H]1CC[C@@H]2O (stereo partly drawn) [fulvestrant]
- p4EBP1 level (p4EBP1): increased p4EBP1 in response to fulvestrant in a dose-dependent manner
- pAKT level in combination (pAKT): reversed by combination with fulvestrant in a dose-dependent manner

SMILES: CO[C@H]1C[C@@H]2CC[C@@H](C)[C@@](O)(O2)C(=O)C(=O)N2CCCC[C@H]2C(=O)O[C@H]([C@H](C)C[C@@H]2CC[C@@H](O)[C@H](OC)C2)CC(=O)[C@H](C)/C=C(\C)[C@@H](O)[C@@H](OC)C(=O)[C@H](C)C[C@H](C)/C=C/C=C/C=C/1C [Sirolimus, sirolimus]
- metabolism (CYP3A4): metabolized primarily by CYP3A4
- binding to HSA (HSA): shown to bind HSA

SMILES: CC(=O)O[C@@]12CO[C@@H]1C[C@H](O)[C@@]1(C)C(=O)[C@H](O)C3=C(C)[C@@H](OC(=O)[C@H](O)[C@@H](NC(=O)OC(C)(C)C)c4ccccc4)C[C@@](O)([C@@H](OC(=O)c4ccccc4)[C@H]21)C3(C)C [docetaxel]
- binding to human plasma proteins (human plasma proteins): shown to bind to human plasma proteins

SMILES: COc1ccc(-c2ccc3c(N4CCOCC4)nc(N4C[C@@H](C)O[C@@H](C)C4)nc3n2)cc1CO [KU-0063794]
- inhibition of phosphorylation of mTORC1 at Ser2448 (mTORC1 at Ser2448): inhibits the phosphorylation of mTORC1 at Ser2448 in a dose-dependent and time-dependent manner
